System: HMG-CoA reductase (3-hydroxy-3-methyl-glutaryl-coenzyme A reductase)
Test: HMG-CoA reductase enzyme activity determination (modified from G. C. Ness et al.), relative in vitro activity versus mevinolin
Type: biochemical, rat (male Rico rats, liver)
Conditions: from IC50 values, IC50 of reference mevinolin set at 1; 20 min preincubation at 37° C., 60 min incubation
Procedure: The enzyme activity determination was carried out as modified by G. C. Ness et al., Archives of Biochemistry and Biphysics 197, 493-499 [1979]. Male Rico rats (body weight 300-400 g) were treated for 11 days with altromin powdered feed to which 40 g of cholestyramine/kg of feed had been added. After description, the livers were removed from the animals and placed on ice. The livers were comminuted and homogenized 3 times in 3 volumes of 0.1 m sucrose, 0.05 m KCl, 0.04 m Kx Hy phosphate, 0.03 m ethylenediaminetetraacetic acid, 0.002 m dithiothreitol [SPE] buffer pH 7.2 in a Potter-Elvejem homogenizer. The mixture was then centrifuged at 15,000 g for 15 minutes and the sediment was discarded. […]
After incubating for 60 minutes at 37° C., the batch was centrifuged and 600 μl of the supernatant was applied to a 0.7×4 cm column packed with a 5-chloride 100-200 mesh (anion exchanger). The column was subsequently washed with 2 ml of distilled water and 3 ml of Aquasol were added to runnings plus washing water and counted in an LKB scintillation counter. IC50 values were determined by intrapolation by plotting the percentage inhibition against the concentration of the compound in the test. In order to determine the relative inhibitory potency, the IC50 value of the reference substance mevinolin was set at 1 and compared with the simultaneously determined IC50 value of the test compound.

SMILES | relative activity (mevinolin = 1)
CCCCn1c(=O)[nH]c(=O)c2c(-c3ccc(F)cc3)c(/C=C/[C@@H](O)C[C@@H](O)CC(=O)OC)c(C(C)C)nc21 (relative stereo) [Example 8, Methyl erythro-(E)-7-[1-butyl-5-(4-fluorophenyl)-7-isopropyl-2,4-dioxo-1,2,3,4-terahydro-pyrido(2,3-d)pyrimidin-6-yl]-3,5-dihydroxy-hept-6-enoate] | 2
COC(=O)C[C@H](O)C[C@H](O)/C=C/c1c(C(C)C)nc2c(c1-c1ccc(F)cc1)c(=O)[nH]c(=O)n2C (relative stereo) [Example 16, Methyl erythro-(E)-7-[5-(4-fluorophenyl)-7-isopropyl-1-methyl-2,4-dioxo-1,2,3,4-tetrahydro-pyrido(2,3-d)pyrimidin-6-yl]-3,5-dihydroxy-hept-6-enoate] | 6

— patent US5075311A, “HMG-CoA reductase inhibiting substituted pryido (2,3-d) pyrimidines” (Bayer Aktiengesellschaft, priority 1989, dated 1991)
